Reference: patent US5767141A, “Substituted propane derivatives, a process for their preparation and the use of the compounds for treating diseases” (Hoechst Aktiengesellschaft, priority 1994, dated 1998)

Tests used:
[1] = target: T1, glucose-6-phosphatase system (Rattus norvegicus, UniProt F7EWB7); test: inhibition of the glucose-6-phosphatase system, enzyme assay in liver microsomes (phosphate liberated from glucose 6-phosphate); type: biochemical, male Wistar rats
T1 construct: To prepare the microsome fraction containing the glucose-6-phosphatase, fresh liver organs from male Wistar rats were used; from tissue; host or cells: liver microsome fraction of male Wistar rats
T1 sequence (F7EWB7 1-429): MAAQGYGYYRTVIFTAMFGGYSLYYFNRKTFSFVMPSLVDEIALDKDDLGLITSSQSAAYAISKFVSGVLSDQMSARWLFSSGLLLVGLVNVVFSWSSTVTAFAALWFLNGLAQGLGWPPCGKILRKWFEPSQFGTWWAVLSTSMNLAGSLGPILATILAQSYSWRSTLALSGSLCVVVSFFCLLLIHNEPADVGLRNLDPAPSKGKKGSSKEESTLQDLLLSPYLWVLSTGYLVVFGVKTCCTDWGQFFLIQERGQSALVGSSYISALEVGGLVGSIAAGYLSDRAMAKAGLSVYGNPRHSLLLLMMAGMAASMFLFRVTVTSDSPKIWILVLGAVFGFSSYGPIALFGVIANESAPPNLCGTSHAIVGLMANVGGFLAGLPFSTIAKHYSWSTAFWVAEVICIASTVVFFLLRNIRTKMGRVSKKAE
Experimental: The effect of the compounds according to the invention on the glucose-6-phosphatase system was investigated in an enzyme assay in liver microsomes.
To prepare the microsome fraction containing the glucose-6-phosphatase, fresh liver organs from male Wistar rats were used and were processed as described in the literature [Canfield, W. K. and Arion, W. J., J. Biol. Chem. 263, 7458-7460, (1988)]. This microsome fraction can be stored at -70° C. for at least 2 months without significant loss of activity.
The glucose-6-phosphatase activity was detected as indicated in the literature (Arion, W. J. in Methods Enzymol. 174, Academic Press 1989, pages 58-67) by determination of the phosphate liberated from glucose 6-phosphate. 0.1 ml of assay mixture contained glucose 6-phosphate (1 mmol/l), the test substance, 0.1 mg of microsome fraction and 100 mmol/l HEPES buffer (4-(2-hydroxyethyl)piperazine-1-ethanesulfonic acid), pH 7.0. The reaction was started by adding the enzyme. After 20 minutes at room temperature, the reaction was stopped by adding 0.2 ml of phosphate reagent. The sample was incubated at 37° C. for 30 min, and the absorption (A) of the blue color was subsequently measured at 570 nm. The inhibitory activity of the test substance emerged from comparison with a control reaction which contained no test substance according to the formula [formula] […]

glucose-6-phosphatase = conditions: qualitative, literature; cited from earlier work

CC(C)(COC(=O)/C=C(/c1ccccc1)n1cnc2ccccc21)C(OCCCc1ccc(Cl)cc1)C(=O)O (racemic) [Example 1, (±)-4-(3Z-(1-Benzimidazolyl)-3-phenylpropenoyloxy)-2-(4-chlorophenylpropyloxy)-3,3-dimethylbutanoic acid]
inhibition of the glucose-6-phosphatase system (in words) ([1]; qualitative statement): inhibitors of the glucose-6-phosphatase system | IC50 ([1]; rat liver microsome fraction, glucose 6-phosphate 1 mmol/l, pH 7.0, 20 minutes at room temperature, read-out: IC50 (concentration for 50% inhibition of enzyme activity)): 4 µM

S=C=Nc1ccccc1C=Cc1ccccc1N=C=S [2,2'-diisothiocyanatostilbene]
inhibition of glucose-6-phosphatase (in words) (glucose-6-phosphatase): non-specific inhibitors of glucose-6-phosphatase

CC(=O)Oc1ccccc1C=Cc1ccccc1N=C=S [2-iso-thiocyanato-2'-acetoxystilbene]
inhibition of glucose-6-phosphatase (in words) (glucose-6-phosphatase): non-specific inhibitors of glucose-6-phosphatase

O=C(O)c1cc(SSc2ccc([N+](=O)[O-])c(C(=O)O)c2)ccc1[N+](=O)[O-] [5,5'-dithiobis-2-nitrobenzoic acid]
inhibition of glucose-6-phosphatase (in words) (glucose-6-phosphatase): non-specific inhibitors of glucose-6-phosphatase

O=C(CCc1ccc(O)cc1)c1c(O)cc(O)cc1O[C@@H]1O[C@H](CO)[C@@H](O)[C@H](O)[C@H]1O [phlorrhizin]
inhibition of glucose-6-phosphatase (in words) (glucose-6-phosphatase): non-specific inhibitors of glucose-6-phosphatase
